# “And” between values parts separate entries of the source, which are not always exact repeats. Equal entries are not always repeated.
# Experiments:
# [1] = system: plexiform neurofibroma; conditions: cited from earlier work
# [2] = type: in vivo, mouse
# [3] = system: plexiform neurofibroma in Nf1^flox/flox;PostnCre mice; assay: Plexiform neurofibroma tumor burden and histopathology in Nf1flox/flox; type: in vivo, mouse
# [4] = molecular target: T1, AXL (Mus musculus, UniProt Q00993); assay: AXL in tumor bearing nerve tissue of treated mice; type: in vivo; conditions: 12 weeks of treatment vs vehicle; IHC and western blot
# T1 sequence (Q00993 19-888): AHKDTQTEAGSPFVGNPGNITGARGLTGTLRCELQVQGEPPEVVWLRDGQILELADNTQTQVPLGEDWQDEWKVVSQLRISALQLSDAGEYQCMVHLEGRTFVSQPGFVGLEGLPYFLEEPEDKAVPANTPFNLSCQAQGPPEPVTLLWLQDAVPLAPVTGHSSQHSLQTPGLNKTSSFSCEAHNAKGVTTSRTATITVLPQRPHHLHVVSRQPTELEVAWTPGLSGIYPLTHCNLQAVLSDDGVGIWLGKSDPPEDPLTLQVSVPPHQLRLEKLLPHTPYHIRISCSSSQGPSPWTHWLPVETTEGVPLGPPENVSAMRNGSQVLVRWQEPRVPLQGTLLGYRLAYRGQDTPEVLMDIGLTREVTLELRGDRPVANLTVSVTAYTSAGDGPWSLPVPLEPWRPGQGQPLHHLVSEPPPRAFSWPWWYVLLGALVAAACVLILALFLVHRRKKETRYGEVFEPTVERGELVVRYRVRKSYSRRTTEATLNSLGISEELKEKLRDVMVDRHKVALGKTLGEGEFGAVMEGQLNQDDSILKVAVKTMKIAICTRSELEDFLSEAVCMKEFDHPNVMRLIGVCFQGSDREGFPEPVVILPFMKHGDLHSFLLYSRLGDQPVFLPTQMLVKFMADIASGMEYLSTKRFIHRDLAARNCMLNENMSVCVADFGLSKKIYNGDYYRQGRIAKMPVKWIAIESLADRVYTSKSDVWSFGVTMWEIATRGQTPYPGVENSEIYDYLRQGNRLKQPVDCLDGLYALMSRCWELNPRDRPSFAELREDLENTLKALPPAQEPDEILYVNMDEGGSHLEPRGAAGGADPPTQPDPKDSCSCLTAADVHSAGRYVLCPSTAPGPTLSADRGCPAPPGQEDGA
# [5] = system: soluble AXL (sAXL); assay: Mouse sAXL ELISA in plasma; type: in vivo; conditions: 12 weeks of treatment; vs WT mice or vehicle treated Nf1flox/flox;PostnCre mice
# [6] = system: plexiform neurofibroma tumor tissues; assay: TUNEL staining of nerve tissues of treated mice; type: in vivo, mouse
# [7] = molecular target: T2, DDR1 (Mus musculus, UniProt Q03146); assay: MIB/MS kinome profiling of sciatic nerve tumor tissue after in vivo treatment; conditions: 7 days of sustained treatment vs vehicle
# T2 sequence (Q03146 20-911): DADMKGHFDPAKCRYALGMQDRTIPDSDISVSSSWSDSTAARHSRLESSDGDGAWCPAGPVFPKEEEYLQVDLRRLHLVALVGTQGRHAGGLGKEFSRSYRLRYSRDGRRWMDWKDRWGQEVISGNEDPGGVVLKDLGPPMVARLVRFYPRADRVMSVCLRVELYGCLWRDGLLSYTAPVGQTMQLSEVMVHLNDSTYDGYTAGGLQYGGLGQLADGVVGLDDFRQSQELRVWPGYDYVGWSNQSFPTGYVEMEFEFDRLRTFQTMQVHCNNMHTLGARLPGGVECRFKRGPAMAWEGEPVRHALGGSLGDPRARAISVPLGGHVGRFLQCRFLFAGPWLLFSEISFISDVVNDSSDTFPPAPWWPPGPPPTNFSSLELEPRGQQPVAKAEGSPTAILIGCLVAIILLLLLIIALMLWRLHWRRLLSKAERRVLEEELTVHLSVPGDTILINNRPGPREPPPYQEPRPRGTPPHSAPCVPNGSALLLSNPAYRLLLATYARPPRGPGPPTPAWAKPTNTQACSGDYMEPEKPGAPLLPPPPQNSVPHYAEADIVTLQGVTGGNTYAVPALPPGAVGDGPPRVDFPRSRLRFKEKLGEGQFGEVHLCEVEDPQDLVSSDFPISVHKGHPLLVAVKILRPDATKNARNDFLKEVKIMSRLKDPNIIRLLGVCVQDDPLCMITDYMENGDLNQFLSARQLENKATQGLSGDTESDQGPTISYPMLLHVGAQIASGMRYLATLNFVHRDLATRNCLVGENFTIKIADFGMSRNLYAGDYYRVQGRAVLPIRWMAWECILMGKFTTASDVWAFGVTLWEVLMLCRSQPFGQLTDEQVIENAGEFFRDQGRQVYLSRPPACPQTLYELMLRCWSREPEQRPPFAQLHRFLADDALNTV
# [8] = molecular target: T3, DDR2 (Mus musculus, UniProt Q62371); assay: as above; conditions: 7 days of sustained treatment vs vehicle
# T3 sequence (Q62371 22-854): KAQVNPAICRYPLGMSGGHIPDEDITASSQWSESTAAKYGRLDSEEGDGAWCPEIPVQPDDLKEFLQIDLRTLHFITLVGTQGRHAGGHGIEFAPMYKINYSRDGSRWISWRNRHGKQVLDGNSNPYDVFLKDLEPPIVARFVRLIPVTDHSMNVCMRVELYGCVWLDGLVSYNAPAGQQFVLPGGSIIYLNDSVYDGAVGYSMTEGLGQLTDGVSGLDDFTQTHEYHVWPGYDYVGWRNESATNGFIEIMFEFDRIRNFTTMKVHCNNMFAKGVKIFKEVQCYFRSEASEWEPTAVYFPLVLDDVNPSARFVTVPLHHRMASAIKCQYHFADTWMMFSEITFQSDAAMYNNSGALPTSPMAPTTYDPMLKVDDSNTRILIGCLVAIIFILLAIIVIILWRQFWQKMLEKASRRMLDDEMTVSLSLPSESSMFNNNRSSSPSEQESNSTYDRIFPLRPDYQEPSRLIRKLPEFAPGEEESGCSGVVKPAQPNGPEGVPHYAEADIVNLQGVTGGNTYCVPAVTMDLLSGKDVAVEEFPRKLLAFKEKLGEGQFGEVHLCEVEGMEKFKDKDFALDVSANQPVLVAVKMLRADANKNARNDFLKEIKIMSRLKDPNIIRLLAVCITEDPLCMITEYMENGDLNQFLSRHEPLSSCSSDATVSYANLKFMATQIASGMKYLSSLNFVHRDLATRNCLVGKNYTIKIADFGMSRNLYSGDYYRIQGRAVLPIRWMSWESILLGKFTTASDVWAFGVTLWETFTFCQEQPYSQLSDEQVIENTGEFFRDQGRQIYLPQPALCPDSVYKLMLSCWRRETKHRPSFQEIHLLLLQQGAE
# [9] = molecular target: T1, AXL; assay: as above; conditions: 7 days of sustained treatment vs vehicle
# [10] = system: AXL; assay: pAXL western blot after GAS6 stimulation; type: cell-based; conditions: GAS6 200-250 ng/mL; cabozantinib 1000-2500 nM; Schwann cells, fibroblasts, ECFCs
# [11] = system: human immortalized NF1−/− Schwann cells (iPNF95.6); assay: Caspase 3/7 Glo apoptosis assay; type: cell-based; conditions: 24 hours; cabozantinib 39 nM to 5 μM; Navitoclax 1 μM positive control
# [12] = system: NF1-related plexiform neurofibroma; type: in vivo, human
# [13] = Phase 2 trial NCT02101736: safety and tolerability; parameters: species or system human; conditions: in vivo
# [14] = type: in vivo, human; conditions: baseline to cycle 12
# [15] = Phase 2 trial NCT02101736: clinical pharmacokinetics; type: in vivo; conditions: 40 mg dose, human plasma
# [16] = system: malignant peripheral nerve sheath tumor (MPNST) murine model; conditions: cabozantinib and mirdametinib; Nf1 and Trp53 compound mutations; cited from earlier work
compound,measurement,setting,value
pegylated interferon alfa-2b,clinical outcome in PN,[1],only prolonged PN time to progression
COc1cc2nccc(Oc3ccc(NC(=O)C4(C(=O)Nc5ccc(F)cc5)CC4)cc3)c2cc1OC [cabozantinib],Tmax,"[2]; Nf1flox/flox;PostnCre, mouse, plasma, po, 15 mg/kg",2 h
same,maximum concentration in plasma,"[2]; single 15mg/kg oral gavage dose, Nf1flox/flox;PostnCre mice, plasma",6800 ng/mL
same,maximal concentration in nerve tissue,"[2]; single 15mg/kg oral gavage dose, nerve tissue",636 ng/g
same,reduction of number of PN per mouse,"[3]; 15mg/kg daily oral gavage, 12 weeks, relative to vehicle control",approximately 60%
same,reduction of mean volume of the proximal peripheral nerve roots,"[3]; 15mg/kg daily oral gavage, 12 weeks, vs vehicle",38%
same,mast cell infiltration,"[3]; toluidine blue stained sections, 12 weeks treatment vs vehicle, P = 0.1013",not significantly changed
same,"neoangiogenesis (blood vessels, CD31 immunohistochemistry)","[3]; treated tumors versus vehicle control, P < 0.0001",significant reduction
same,AXL in treated tissues,[4],significant decline
same,sAXL in plasma,[5],significantly elevated
same,apoptosis in nerve tissues (TUNEL staining),[6],negative for TUNEL staining
same,MIB binding of DDR1,[7],loss of MIB binding
same,MIB binding of DDR2,[8],loss of MIB binding
same,MIB binding of AXL,[9],loss of MIB binding
same,Gas6 mediated activation of AXL at the biochemical level (pAXL),[10],inhibited
same,apoptosis (caspase 3/7 activity),[11],does not induce apoptosis
same,disease progression while on study,[12]; 19 evaluable participants,No patient had disease progression
same,"partial response rate (PR, ≥20% reduction in target lesion volume by MRI)","[12]; 19 evaluable participants, 40 mg escalated to 60 mg once daily",42% and 42.1%
same,participants in whom maximal tumor response was not achieved until cycle 18,[12]; in vivo,4
same,participants in whom maximal tumor response was not achieved until cycle 24,[12]; in vivo,2
same,number of participants with PR,[12]; of the 19 participants evaluable for response,8
same,participants requiring dose reductions while on study,[13],Seven
same,participants with grade 3 adverse events,[13],8
same,patients requiring dose reduction or discontinuation of therapy due to AEs,[13],Nine
same,mean decrease in worst tumor pain intensity,[14]; responder group,3 points
same,"reduction in reported tumor pain (NRS-11), LSM estimate","[14]; responders, p<0.0001",3.00
same,"change in PedsQL NF1 general pain and hurt scale, LSM estimate","[14]; total sample, p=0.0036, improvement",−14.98
same,dose-normalized mean trough level,[15]; Cycle 1 Day 15,16.5 ng/mL/mg
same,dose-normalized mean trough level,[15]; end of Cycle 1,20.7 ng/mL/mg
same,tumor growth in MPNST murine model,[16],reduce growth
O=C(NOC[C@H](O)CO)c1ccc(F)c(F)c1Nc1ccc(I)cc1F [mirdametinib],tumor growth in MPNST murine model,[16],reduce growth
Cn1cnc2c(F)c(Nc3ccc(Br)cc3Cl)c(C(=O)NOCCO)cc21 [selumetinib],partial response rate,[1]; children with progressive PN,74%
CC1(C)CCC(c2ccc(Cl)cc2)=C(CN2CCN(c3ccc(C(=O)NS(=O)(=O)c4ccc(N[C@H](CCN5CCOCC5)CSc5ccccc5)c(S(=O)(=O)C(F)(F)F)c4)cc3)CC2)C1 [Navitoclax],apoptosis (caspase 3/7 activity),[11],robust increase

# — publication PMC8275010 (Nature medicine, 2021)
